Measured values: ChEMBL document CHEMBL4190297, “Cafestol, a Bioactive Substance in Coffee, Has Antidiabetic Properties in KKAy Mice” (J Nat Prod, 2017)
Activity calls are given as the source filed them.

How the values were obtained:
Mus musculus [1] = species on record: Mus musculus; experiment: Toxicity in KK-Ay diabetic mouse model assessed as effect on average 24 hrs food consumption by measured food consumption at 1.1 mg added daily to normal chow pellets for 10 weeks (reference value: 4.7 +/- 0.2 g); assay type: organism-based; conditions: in vivo, po
Mus musculus [2] = species on record: Mus musculus; experiment: Antidiabetic activity in KK-Ay diabetic mouse model assessed as non-fasting blood glucose level at 0.4 mg added daily to normal chow pellets for 10 weeks (reference value: 26.2 +/- 1.2 mmol/L); assay type: functional
Mus musculus [3] = species on record: Mus musculus; experiment: Antidiabetic activity in KK-Ay diabetic mouse model assessed as non-fasting blood glucose level at 1.1 mg added daily to normal chow pellets for 10 weeks (reference value: 26.2 +/- 1.2 mmol/L); assay type: functional
Mus musculus [4] = species on record: Mus musculus; experiment: Antidiabetic activity in KK-Ay diabetic mouse model assessed as increase in insulin levels in plasma at 1.1 mg added daily to normal chow pellets for 10 weeks by radioimmunoassay; assay type: functional, organism-based
Mus musculus [5] = species on record: Mus musculus; experiment: Antidiabetic activity in KK-Ay diabetic mouse model assessed as reduction in HOMA-IR levels at 0.4 mg added daily to normal chow pellets for 10 weeks; assay type: functional, organism-based
Mus musculus [6] = species on record: Mus musculus; experiment: Antidiabetic activity in KK-Ay diabetic mouse model assessed as increase in HDL levels at 0.4 to 1.1 mg added daily to normal chow pellets for 10 weeks by colorimetric analysis; assay type: functional, organism-based
Mus musculus [7] = species on record: Mus musculus; experiment: Antidiabetic activity in KK-Ay diabetic mouse model assessed as decrease in plasma triglycerides level at 0.14 to 1.1 mg added daily to normal chow pellets for 10 weeks by colorimetric analysis; assay type: functional, organism-based
Mus musculus [8] = species on record: Mus musculus; experiment: Induction of 3.3 mM glucose-stimulated insulin secretion in pancreatic islets isolated from KK-Ay diabetic mouse model at 0.4 mg added daily to normal chow pellets for 10 weeks followed by glucose stimulation of isolated pancreatic islets for 1 hr by radioimmunoassay relative to control; assay type: functional
Mus musculus [9] = species on record: Mus musculus; experiment: Effect on Mtor mRNA expression levels in adipose tissue of KK-Ay diabetic mouse model at 0.4 to 1.1 mg added daily to normal chow pellets for 10 weeks by qRT-PCR analysis; assay type: functional, organism-based
Mus musculus [10] = species on record: Mus musculus; experiment: Effect on IRS2 mRNA expression levels in adipose tissue of KK-Ay diabetic mouse model at 0.4 to 1.1 mg added daily to normal chow pellets for 10 weeks by qRT-PCR analysis; assay type: functional, organism-based
Mus musculus [11] = species on record: Mus musculus; experiment: Effect on Hprt1 mRNA expression levels in adipose tissue of KK-Ay diabetic mouse model at 0.4 to 1.1 mg added daily to normal chow pellets for 10 weeks by qRT-PCR analysis; assay type: functional, organism-based
Mus musculus [12] = species on record: Mus musculus; experiment: Effect on CD36 mRNA expression levels in adipose tissue of KK-Ay diabetic mouse model at 0.4 to 1.1 mg added daily to normal chow pellets for 10 weeks by qRT-PCR analysis; assay type: functional, organism-based
Mus musculus [13] = species on record: Mus musculus; experiment: Effect on Abca1 mRNA expression levels in adipose tissue of KK-Ay diabetic mouse model at 0.4 to 1.1 mg added daily to normal chow pellets for 10 weeks by qRT-PCR analysis; assay type: functional, organism-based
Mus musculus [14] = species on record: Mus musculus; experiment: Effect on SOD1 mRNA expression levels in muscle of KK-Ay diabetic mouse model at 0.4 to 1.1 mg added daily to normal chow pellets for 10 weeks by qRT-PCR analysis; assay type: functional, organism-based
Mus musculus [15] = species on record: Mus musculus; experiment: Effect on Sirt1 mRNA expression levels in muscle of KK-Ay diabetic mouse model at 0.4 to 1.1 mg added daily to normal chow pellets for 10 weeks by qRT-PCR analysis; assay type: functional, organism-based
Mus musculus [16] = species on record: Mus musculus; experiment: Effect on Pi3K mRNA expression levels in muscle of KK-Ay diabetic mouse model at 0.4 to 1.1 mg added daily to normal chow pellets for 10 weeks by qRT-PCR analysis; assay type: functional, organism-based
Mus musculus [17] = species on record: Mus musculus; experiment: Effect on Lipc mRNA expression levels in muscle of KK-Ay diabetic mouse model at 0.4 to 1.1 mg added daily to normal chow pellets for 10 weeks by qRT-PCR analysis; assay type: functional, organism-based
Mus musculus [18] = species on record: Mus musculus; experiment: Effect on InsR mRNA expression levels in muscle of KK-Ay diabetic mouse model at 0.4 to 1.1 mg added daily to normal chow pellets for 10 weeks by qRT-PCR analysis; assay type: functional, organism-based
Mus musculus [19] = species on record: Mus musculus; experiment: Effect on GYS2 mRNA expression levels in muscle of KK-Ay diabetic mouse model at 0.4 to 1.1 mg added daily to normal chow pellets for 10 weeks by qRT-PCR analysis; assay type: functional, organism-based
Mus musculus [20] = species on record: Mus musculus; experiment: Effect on FAS mRNA expression levels in muscle of KK-Ay diabetic mouse model at 0.4 to 1.1 mg added daily to normal chow pellets for 10 weeks by qRT-PCR analysis; assay type: functional, organism-based
Mus musculus [21] = species on record: Mus musculus; experiment: Effect on AMPKalpha2 mRNA expression levels in muscle of KK-Ay diabetic mouse model at 0.4 to 1.1 mg added daily to normal chow pellets for 10 weeks by qRT-PCR analysis; assay type: functional, organism-based
Mus musculus [22] = species on record: Mus musculus; experiment: Effect on Abca1 mRNA expression levels in muscle of KK-Ay diabetic mouse model at 0.4 to 1.1 mg added daily to normal chow pellets for 10 weeks by qRT-PCR analysis; assay type: functional, organism-based
Mus musculus [23] = species on record: Mus musculus; experiment: Effect on SOD1 mRNA expression levels in liver of KK-Ay diabetic mouse model at 0.4 to 1.1 mg added daily to normal chow pellets for 10 weeks by qRT-PCR analysis; assay type: functional, organism-based
Mus musculus [24] = species on record: Mus musculus; experiment: Effect on PKCdelta mRNA expression levels in liver of KK-Ay diabetic mouse model at 0.4 to 1.1 mg added daily to normal chow pellets for 10 weeks by qRT-PCR analysis; assay type: functional, organism-based
Mus musculus [25] = species on record: Mus musculus; experiment: Effect on GYS2 mRNA expression levels in liver of KK-Ay diabetic mouse model at 0.4 to 1.1 mg added daily to normal chow pellets for 10 weeks by qRT-PCR analysis; assay type: functional, organism-based
Mus musculus [26] = species on record: Mus musculus; experiment: Effect on FAS mRNA expression levels in liver of KK-Ay diabetic mouse model at 0.4 to 1.1 mg added daily to normal chow pellets for 10 weeks by qRT-PCR analysis; assay type: functional, organism-based
Mus musculus [27] = species on record: Mus musculus; experiment: Effect on AMPKalpha2 mRNA expression levels in liver of KK-Ay diabetic mouse model at 0.4 to 1.1 mg added daily to normal chow pellets for 10 weeks by qRT-PCR analysis; assay type: functional, organism-based
Mus musculus [28] = species on record: Mus musculus; experiment: Effect on Adipor1 mRNA expression levels in liver of KK-Ay diabetic mouse model at 0.4 to 1.1 mg added daily to normal chow pellets for 10 weeks by qRT-PCR analysis; assay type: functional, organism-based
Mus musculus [29] = species on record: Mus musculus; experiment: Effect on water-fat fraction in liver of KK-Ay diabetic mouse model at 0.4 to 1.1 mg added daily to normal chow pellets for 10 weeks by MR spectroscopic analysis; assay type: functional, organism-based
Mus musculus [30] = species on record: Mus musculus; experiment: Effect on triglyceride concentration in liver of KK-Ay diabetic mouse model at 0.4 to 1.1 mg added daily to normal chow pellets for 10 weeks; assay type: functional, organism-based
Mus musculus [31] = species on record: Mus musculus; experiment: Effect on PKCdelta mRNA expression levels in adipose tissue of KK-Ay diabetic mouse model at 0.4 to 1.1 mg added daily to normal chow pellets for 10 weeks by qRT-PCR analysis; assay type: functional, organism-based
Mus musculus [32] = species on record: Mus musculus; experiment: Effect on PPARalpha mRNA expression levels in adipose tissue of KK-Ay diabetic mouse model at 0.4 to 1.1 mg added daily to normal chow pellets for 10 weeks by qRT-PCR analysis; assay type: functional, organism-based
Mus musculus [33] = species on record: Mus musculus; experiment: Effect on SOD1 mRNA expression levels in adipose tissue of KK-Ay diabetic mouse model at 0.4 to 1.1 mg added daily to normal chow pellets for 10 weeks by qRT-PCR analysis; assay type: functional, organism-based

Measured: Activity

C[C@@]12CCc3occc3[C@H]1CC[C@@]13C[C@H](CC[C@H]12)[C@@](O)(CO)C3
5.9 g: Mus musculus [1]
17.3 mmol/L: Mus musculus [2]
19.7 mmol/L: Mus musculus [3]
67%: Mus musculus [8]
inactive: all other assays above
